Results from PubChem BioAssay (NCI).
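Tested at 5 concentrations; 48 h exposure; 96-well plates; endpoints linearly interpolated, else capped at highest concentration. At the GI50, growth is halved. TGI marks complete inhibition of growth.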

Key:
Test in all cases: NCI tumour cell line growth inhibition, 48 h
[1] = tested on: SK-MEL-5 melanoma
[2] = tested on: M14 melanoma
[3] = tested on: HS 578T breast
[4] = tested on: SK-OV-3 ovarian
[5] = tested on: SNB-19 CNS
[6] = tested on: NCI/ADR-RES ovarian
[7] = tested on: MOLT-4 leukemia
[8] = tested on: TK-10 renal
[9] = tested on: SF-295 CNS
[10] = tested on: PC-3 prostate
[11] = tested on: SR leukemia
[12] = tested on: NCI-H460 lung
[13] = tested on: MCF7 breast
[14] = tested on: BT-549 breast
[15] = tested on: SF-268 CNS
[16] = tested on: LOX IMVI melanoma
[17] = tested on: SNB-75 CNS
[18] = tested on: SW-620 colon
[19] = tested on: RPMI-8226 leukemia
[20] = tested on: CCRF-CEM leukemia
[21] = tested on: SF-539 CNS
[22] = tested on: SK-MEL-2 melanoma
[23] = tested on: DU-145 prostate
[24] = tested on: MALME-3M melanoma
[25] = tested on: T-47D breast
[26] = tested on: CAKI-1 renal
[27] = tested on: UACC-257 melanoma
[28] = tested on: HL-60(TB) leukemia
[29] = tested on: HOP-92 NSCLC
[30] = tested on: NCI-H23 lung
[31] = tested on: U251 CNS
[32] = tested on: ACHN renal
[33] = tested on: OVCAR-5 ovarian
[34] = tested on: SK-MEL-28 melanoma
[35] = tested on: HOP-62 NSCLC
[36] = tested on: UACC-62 melanoma
[37] = tested on: COLO 205 colon
[38] = tested on: NCI-H226 lung
[39] = tested on: IGROV1 ovarian
[40] = tested on: MDA-MB-435
[41] = tested on: SN12C renal
[42] = tested on: HCT-116 colon
[43] = tested on: K-562 leukemia
[44] = tested on: EKVX NSCLC
[45] = tested on: MDA-MB-231 breast
[46] = tested on: 786-0 renal
[47] = tested on: HCT-15 colon
[48] = tested on: RXF 393 renal
[49] = tested on: OVCAR-3 ovarian
[50] = tested on: OVCAR-8 ovarian
[51] = tested on: HCC-2998 colon
[52] = tested on: OVCAR-4 ovarian
[53] = tested on: NCI-H522 lung
[54] = tested on: HT29 colon
[55] = tested on: KM12 colon
[56] = tested on: A549 NSCLC
[57] = tested on: UO-31 renal
[58] = tested on: A498 renal

COc1ccc2c(C3=C(c4cn(C)c5ccccc45)C(=O)NC3=O)coc2c1
GI50 [1]: 0.422 µM
TGI [1]: 7.3 µM
GI50 [2]: 0.288 µM
TGI [2]: 18.6 µM
GI50 [3]: 0.234 µM
TGI [3]: 3.8 µM
GI50 [4]: 0.368 µM
TGI [4]: 47.2 µM
GI50 [5]: 0.712 µM
TGI [5]: 70.4 µM
GI50 [6]: 0.207 µM
TGI [6]: 15 µM
GI50 [7]: 0.424 µM
TGI [7]: 33.2 µM
GI50 [8]: 13.6 µM
TGI [8]: 59.7 µM
GI50 [9]: 0.469 µM
TGI [9]: 15.1 µM
GI50 [10]: 0.471 µM
TGI [10]: > 100 µM
GI50 [11]: 0.0849 µM
TGI [11]: 8.68 µM
GI50 [12]: 0.353 µM
TGI [12]: 11.6 µM
GI50 [13]: 0.208 µM
TGI [13]: 26 µM
GI50 [14]: 0.847 µM
TGI [14]: 18.2 µM
GI50 [15]: 1.19 µM
TGI [15]: 27.9 µM
GI50 [16]: 0.558 µM
TGI [16]: 16.6 µM
GI50 [17]: 0.148 µM
TGI [17]: 0.71 µM
GI50 [18]: 0.176 µM
TGI [18]: > 57.9 µM
GI50 [19]: 0.415 µM
TGI [19]: 12.6 µM
GI50 [20]: 0.286 µM
TGI [20]: 13.7 µM
GI50 [21]: 0.272 µM
TGI [21]: 1.66 µM
GI50 [22]: 0.191 µM
TGI [22]: 0.931 µM
GI50 [23]: 0.541 µM
TGI [23]: 19.5 µM
GI50 [24]: 12.2 µM
TGI [24]: 33 µM
GI50 [25]: 0.43 µM
TGI [25]: 45.5 µM
GI50 [26]: 0.16 µM
TGI [26]: 17.3 µM
GI50 [27]: 1.44 µM
TGI [27]: 27.6 µM
GI50 [28]: 0.155 µM
TGI [28]: 0.865 µM
GI50 [29]: 21.3 µM
TGI [29]: 44.5 µM
GI50 [30]: 0.804 µM
TGI [30]: 23.6 µM
GI50 [31]: 0.411 µM
TGI [31]: 13 µM
GI50 [32]: 0.798 µM
TGI [32]: 15.5 µM
GI50 [33]: 0.901 µM
TGI [33]: 30.7 µM
GI50 [34]: 4.95 µM
TGI [34]: 35 µM
GI50 [35]: 0.416 µM
TGI [35]: 20.1 µM
GI50 [36]: 0.186 µM
TGI [36]: 16.6 µM
GI50 [37]: 0.289 µM
TGI [37]: 1.31 µM
GI50 [38]: 1.52 µM
TGI [38]: 17.7 µM
GI50 [39]: 0.7 µM
TGI [39]: 24.4 µM
GI50 [40]: 0.132 µM
TGI [40]: 0.477 µM
GI50 [41]: 0.715 µM
TGI [41]: 15.3 µM
GI50 [42]: 0.267 µM
TGI [42]: 12.1 µM
GI50 [43]: 0.0997 µM
TGI [43]: > 100 µM
GI50 [44]: 0.593 µM
TGI [44]: > 88.4 µM
GI50 [45]: 0.632 µM
TGI [45]: 8.11 µM
GI50 [46]: 0.524 µM
TGI [46]: 16.5 µM
GI50 [47]: 0.172 µM
TGI [47]: 24.4 µM
GI50 [48]: 0.215 µM
TGI [48]: 1.24 µM
GI50 [49]: 0.193 µM
TGI [49]: 0.787 µM
GI50 [50]: 0.462 µM
TGI [50]: 16.5 µM
GI50 [51]: 0.65 µM
TGI [51]: 10.9 µM
GI50 [52]: 6.91 µM
TGI [52]: 65.9 µM
GI50 [53]: 0.188 µM
TGI [53]: 0.754 µM
GI50 [54]: 0.3 µM
TGI [54]: 4.83 µM
GI50 [55]: 0.347 µM
TGI [55]: 13.1 µM
GI50 [56]: 1 µM
TGI [56]: > 100 µM
GI50 [57]: 0.468 µM
TGI [57]: 23.5 µM
GI50 [58]: 7.45 µM
TGI [58]: 25.5 µM
